Mortality data for 39 compounds are collected here from US9615576B2, “Pesticidal compositions and processes related thereto” (Dow AgroSciences LLC, priority 2011, dated 2017).

Assay [1] deals with Beet Armyworm (BAW) (Spodoptera exigua). Nature of the assay: Bioassays on Beet Armyworm (BAW), 128-well diet tray assay. Format: in vivo. As to conditions: 168 h, 50 μg/cm^2 test compound on artificial diet, second instar larvae, 25° C., five to seven days, average of eight wells, read-out: BAW Rating (% mortality). The procedure: (§1) Certain molecules disclosed in this document were tested against BAW and CEW using procedures described in the following examples. In the reporting of the results, the “BAW & CEW Rating Table” was used (See Table Section).
Bioassays on BAW (Spodoptera exigua)
Bioassays on BAW were conducted using a 128-well diet tray assay. one to five second instar BAW larvae were placed in each well (3 mL) of the diet tray that had been previously filled with 1 mL of artificial diet to which 50 μg/cm^2 of the test compound (dissolved in 50 μL of 90:10 acetone-water mixture) had been applied (to each of eight wells) and then allowed to dry. Trays were covered with a clear self-adhesive cover, and held at 25° C., 14:10 light-dark for five to seven days. Percent mortality was recorded for the larvae in each well; activity in the eight wells was then averaged. The results are indicated in the table entitled “Table 3: Assay Results” (See Table Section).

The test system of assay [2] is Corn Earworm (CEW) (Helicoverpa zea). Nature of the assay: Bioassays on Corn Earworm (CEW), 128-well diet tray assay. As to conditions: 168 h, 50 μg/cm^2 test compound on artificial diet, second instar larvae, 25° C., five to seven days, average of eight wells, read-out: CEW Rating (% mortality). The format is in vivo. The procedure:
as §1
Bioassays on CEW (Helicoverpa zea)
Bioassays on CEW were conducted using a 128-well diet tray assay. one to five second instar CEW larvae were placed in each well (3 mL) of the diet tray that had been previously filled with 1 mL of artificial diet to which 50 μg/cm^2 of the test compound (dissolved in 50 μL of 90:10 acetone-water mixture) had been applied (to each of eight wells) and then allowed to dry. Trays were covered with a clear self-adhesive cover, and held at 25° C., 14:10 light-dark for five to seven days. Percent mortality was recorded for the larvae in each well; activity in the eight wells was then averaged. The results are indicated in the table entitled “Table 3: Assay Results” (See Table Section).

With `N/C(=N\O)c1cc(/C=C/C(c2cc(Cl)cc(Cl)c2)C(F)(F)F)ccc1-n1cncn1` (stereo not drawn) [DC59, (Z)-5-((E)-3-(3,5-dichlorophenyl)-4,4,4-trifluorobut-1-en-1-yl)-N′-hydroxy-2-(1H-1,2,4-triazol-1-yl)benzimidamide], the mortality at 50 µg/cm2 in assay [1] and in assay [2] was 0% in each case.
With `Cc1cc(/C=C/C(c2cc(Cl)cc(Cl)c2)C(F)(F)F)ccc1C(=O)NC1CSC1` (stereo not drawn) [AC10], the mortality at 50 µg/cm2 in assay [1] and in assay [2] was 50 to 100% in each case.
Turning to `FC(F)(F)C(/C=C/c1ccc(-n2cncn2)c(-c2ccncc2)c1)c1cc(Cl)cc(Cl)c1` (stereo not drawn) [DC64], the mortality at 50 µg/cm2 in assay [1] and in assay [2] was 0% each time.
`O=C(NCc1ncc(/C=C/C(c2cc(Cl)c(Cl)c(Cl)c2)C(F)(F)F)cc1Cl)C1CC1` (stereo not drawn) [CC45]: the mortality at 50 µg/cm2 in assay [1] and in assay [2] was 50 to 100% in each case.
Regarding `N#Cc1cc(/C=C/C(c2ccc(Cl)c(Cl)c2)C(F)(F)F)ccc1-n1cncn1` (stereo not drawn) [DC28], the mortality at 50 µg/cm2 in assay [1] and in assay [2] was 50 to 100% in each case.
Turning to `O=C(NCc1ccc(/C=C/C(c2cc(Cl)cc(Cl)c2)C(F)(F)F)c2ccccc12)C1CC1` (stereo not drawn) [CC47], the mortality at 50 µg/cm2 in assay [1] and in assay [2] was 0% in each case.
`FC(F)(F)C(/C=C/c1ccc(-n2cncn2)cc1Cl)c1cc(Cl)c(Cl)c(Cl)c1` (stereo not drawn) [DC66]: the mortality at 50 µg/cm2 in assay [1] and in assay [2] was 50 to 100% throughout.
As to `O=C(NCc1ccc(/C=C/C(c2ccc(Cl)c(Cl)c2)C(F)(F)F)cc1Cl)C1CC1` (stereo not drawn) [CC17], the mortality at 50 µg/cm2 in assay [1] and in assay [2] was 50 to 100% throughout.
For the compound `O=C(NCc1ccc(Cl)nc1)c1ccc(/C=C/C(c2cc(Cl)c(Cl)c(Cl)c2)C(F)(F)F)cc1Cl` (stereo not drawn) [AC28], the mortality at 50 µg/cm2 in assay [1] and in assay [2] was 50 to 100% in each case.
For the compound `FC(F)(F)C(/C=C/c1ccc(-n2cncn2)c(Cl)c1)c1cc(Cl)cc(Cl)c1` (stereo not drawn) [DC50], the mortality at 50 µg/cm2 in assay [1] and in assay [2] was 50 to 100% in each case.
Consider `FC(F)(F)C(/C=C/c1ccc(-n2cncn2)cc1)c1cccc(Cl)c1Cl` (stereo not drawn) [DC14], for which the mortality at 50 µg/cm2 in assay [1] and in assay [2] was 0% each time.
As for `O=C(NC1CSC1)c1ccc(/C=C/C(c2cc(Cl)c(Cl)c(Cl)c2)C(F)(F)F)cc1Br` (stereo not drawn) [AC32], the mortality at 50 µg/cm2 in assay [1] and in assay [2] was 50 to 100% throughout.
In the case of `Cc1cc(/C=C/C(c2cc(Cl)cc(Cl)c2)C(F)(F)F)ccc1C(=O)NN(C)c1ccccc1F` (stereo not drawn) [AC45], the mortality at 50 µg/cm2 in assay [1] and in assay [2] was 50 to 100% in each case.
On to `Cc1cc(/C=C/C(c2cc(Cl)c(Cl)c(Cl)c2)C(F)(F)F)ccc1-n1cncn1` (stereo not drawn) [DC63], for which the mortality at 50 µg/cm2 in assay [1] and in assay [2] was 50 to 100% throughout.
Take `Cc1ncnn1-c1ccc(/C=C/C(c2cc(Cl)cc(Cl)c2)C(F)(F)F)cc1` (stereo not drawn) [DC23]: the values for the mortality at 50 µg/cm2 in assay [1] and in assay [2] were 0% and 50 to 100%, respectively.
Take `FC(F)(F)C(/C=C/c1ccc(-n2cncn2)c(Cl)c1)c1cc(Cl)c(Cl)c(Cl)c1` (stereo not drawn) [DC49]: the mortality at 50 µg/cm2 in assay [1] and in assay [2] was 50 to 100% throughout.
With `FC(F)(F)C(/C=C/c1ccc(-n2cncn2)cc1)c1cc(Cl)c(Cl)c(Cl)c1` (stereo not drawn) [DC18], the mortality at 50 µg/cm2 in assay [1] and in assay [2] was 50 to 100% throughout.
With `COC(=O)C(=O)NCc1ccc(/C=C/C(c2cc(Cl)c(Cl)c(Cl)c2)C(F)(F)F)cc1Cl` (stereo not drawn) [CC41, (E)-methyl 2-((2-chloro-4-(4,4,4-trifluoro-3-(3,4,5-trichlorophenyl)but-1-en-1-yl)benzyl)amino)-2-oxoacetate], the mortality at 50 µg/cm2 in assay [1] and in assay [2] was 0% in each case.
Turning to `Cc1cc(/C=C/C(c2cc(Cl)c(Cl)c(Cl)c2)C(F)(F)F)ccc1C(=O)NC1CS(=O)(=O)C1` (stereo not drawn) [AC25], the mortality at 50 µg/cm2 in assay [1] and in assay [2] was 50 to 100% in each case.
On to `O=C(CC(F)(F)F)NCC(=O)n1ccc2cc(/C=C/C(c3cc(Cl)c(F)c(Cl)c3)C(F)(F)F)ccc21` (stereo not drawn) [BC13, (E)-N-(2-(5-(3-(3,5-dichloro-4-fluorophenyl)-4,4,4-trifluorobut-1-en-1-yl)-1H-indol-1-yl)-2-oxoethyl)-3,3,3-trifluoropropanamide], for which the mortality at 50 µg/cm2 in assay [1] and in assay [2] was 50 to 100% throughout.
As to `FC(F)(F)C(/C=C/c1ccc(-n2cncn2)cc1)c1ccc(Cl)c(Cl)c1` (stereo not drawn) [DC12], the mortality at 50 µg/cm2 in assay [1] and in assay [2] was 50 to 100% throughout.
Consider `O=C(NCCc1ccc(Cl)nc1)c1ccc(/C=C/C(c2cc(Cl)c(Cl)c(Cl)c2)C(F)(F)F)cc1Br` (stereo not drawn) [AC113], for which the mortality at 50 µg/cm2 in assay [1] lay in the range of 0 to 50%; in assay [2] it was 50 to 100%.
As to `O=C(NC1CCN(CCO)CC1)c1ccc(/C=C/C(c2cc(Cl)c(Cl)c(Cl)c2)C(F)(F)F)cc1Br` (stereo not drawn) [AC109, (E)-2-bromo-N-(1-(2-hydroxyethyl)piperidin-4-yl)-4-(4,4,4-trifluoro-3-(3,4,5-trichlorophenyl)but-1-en-1-yl)benzamide], the mortality at 50 µg/cm2 in assay [1] and in assay [2] was 0% in each case.
Take `O=C(NC1CS(=O)(=O)C1)c1ccc(/C=C/C(c2cc(Cl)cc(Cl)c2)C(F)(F)F)cc1F` (stereo not drawn) [AC83, (E)-4-(3-(3,5-dichlorophenyl)-4,4,4-trifluorobut-1-en-1-yl)-N-(1,1-dioxidothietan-3-yl)-2-fluorobenzamide]: the mortality at 50 µg/cm2 in assay [1] and in assay [2] was 50 to 100% each time.
On to `CC(=O)NCc1ccc(/C=C/C(c2cc(Cl)cc(Cl)c2)C(F)(F)F)cc1Cl` (stereo not drawn) [CC7, (E)-N-(2-chloro-4-(3-(3,5-dichlorophenyl)-4,4,4-trifluorobut-1-en-1-yl)benzyl)acetamide], for which the mortality at 50 µg/cm2 in assay [1] and in assay [2] was 50 to 100% each time.
Consider `O=C(NCc1ccc(/C=C/C(c2cc(Cl)c(Cl)c(Cl)c2)C(F)(F)F)cc1C(F)(F)F)C1CC1` (stereo not drawn) [CC22], for which the mortality at 50 µg/cm2 in assay [1] and in assay [2] was 50 to 100% throughout.
In the case of `O=C(NCc1ccc(/C=C/C(c2cc(Cl)c(Cl)c(Cl)c2)C(F)(F)F)c2ccccc12)C1CC1` (stereo not drawn) [CC48], the mortality at 50 µg/cm2 in assay [1] and in assay [2] was 0% each time.
Turning to `O=C(NCc1ccc(/C=C/C(c2cc(Cl)c(Cl)c(Cl)c2)C(F)(F)F)cc1Cl)Nc1ccccn1` (stereo not drawn) [CC35], the mortality at 50 µg/cm2 in assay [1] and in assay [2] was 0% throughout.
`COc1c(Cl)cc(C(/C=C/c2ccc(-n3cncn3)cc2)C(F)(F)F)cc1Cl` (stereo not drawn) [DC20]: the mortality at 50 µg/cm2 was 50 to 100% in assay [1] and 0% in assay [2].
On to `O=C(CNC(=O)c1ccc(/C=C/C(c2ccc(F)c(Cl)c2)C(F)(F)F)cc1Br)NCC(F)(F)F` (stereo not drawn) [AC99], for which the mortality at 50 µg/cm2 in assay [1] and in assay [2] was 50 to 100% in each case.
As for `Cc1cc(/C=C/C(c2cc(Cl)c(Cl)c(Cl)c2)C(F)(F)F)ccc1C(=O)NCC(=O)NCC(F)(F)F` (stereo not drawn) [AC78], the mortality at 50 µg/cm2 in assay [1] and in assay [2] was 50 to 100% each time.
On to `O=C(NC1CSC1)c1ccc(/C=C/C(c2cc(Cl)c(Cl)c(Cl)c2)C(F)(F)F)cc1C(F)(F)F` (stereo not drawn) [AC34], for which the mortality at 50 µg/cm2 in assay [1] and in assay [2] was 50 to 100% in each case.
`N#Cc1cc(/C=C/C(c2cc(Cl)c(Cl)c(Cl)c2)C(F)(F)F)ccc1-n1cnc(N)n1` (stereo not drawn) [DC41, (E)-2-(3-amino-1H-1,2,4-triazol-1-yl)-5-(4,4,4-trifluoro-3-(3,4,5-trichlorophenyl)but-1-en-1-yl)benzonitrile]: the mortality at 50 µg/cm2 in assay [1] and in assay [2] was 50 to 100% throughout.
For `Cc1cc(/C=C/C(c2cc(Cl)c(F)c(Cl)c2)C(F)(F)F)ccc1C(=O)NCc1cc(Cl)ccn1` (stereo not drawn) [AC77], the mortality at 50 µg/cm2 in assay [1] and in assay [2] was 50 to 100% throughout.
Turning to `O=C(NC1C[S+]([O-])C1)c1ccc(/C=C/C(c2cc(Cl)c(F)c(Cl)c2)C(F)(F)F)cc1F` (stereo not drawn) [AC87], the mortality at 50 µg/cm2 in assay [1] and in assay [2] was 50 to 100% each time.
`COc1cc(/C=C/C(c2cc(Cl)c(F)c(Cl)c2)C(F)(F)F)ccc1C(=O)NC1CS(=O)(=O)C1` (stereo not drawn) [AC85]: the mortality at 50 µg/cm2 in assay [1] and in assay [2] was 50 to 100% in each case.
`O=C(NC1CCN(C2COC2)CC1)c1ccc(/C=C/C(c2cc(Cl)c(Cl)c(Cl)c2)C(F)(F)F)cc1Br` (stereo not drawn) [AC108, (E)-2-bromo-N-(1-(oxetan-3-yl)piperidin-4-yl)-4-(4,4,4-trifluoro-3-(3,4,5-trichlorophenyl)but-1-en-1-yl)benzamide]: the mortality at 50 µg/cm2 in assay [1] is 0 to 50%; in assay [2] it was 0%.
For `Cc1cc(/C=C/C(c2cc(Cl)cc(Cl)c2)C(F)(F)F)ccc1C(=O)NCC1CCOC1` (stereo not drawn) [AC19], the mortality at 50 µg/cm2 in assay [1] and in assay [2] was 0% throughout.
As for `Nc1cc(/C=C/C(c2cc(Cl)cc(Cl)c2)C(F)(F)F)ccc1-n1cncn1` (stereo not drawn) [DC55], the mortality at 50 µg/cm2 in assay [1] and in assay [2] was 0% in each case.
